We go through eight compounds from PubChem BioAssay (NCI).

Test in all cases: DTP human tumour cell line panel, 48 h
The subject of assay [1] is TK-10 renal.
The test system of assay [2] is SNB-75 CNS.
Assay [3] deals with SF-268 CNS.
The test system of assay [4] is UACC-62 melanoma.
In assay [5] the test system is CAKI-1 renal.
Assay [6] concerns SK-OV-3 ovarian.
Assay [7] deals with NCI-H23 lung.
For assay [8], the system named is SK-MEL-5 melanoma.
The subject of assay [9] is OVCAR-8 ovarian.
The test system of assay [10] is NCI/ADR-RES ovarian.

Values joined by “and” are separate entries in the source; they are usually repeats but may differ in a detail not shown here. Equal entries are not always repeated.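 Compound exposure: 48 hours, 5 concentrations, 96-well plates. Here, GI50 denotes the concentration required for 50% inhibition of growth. TGI denotes the concentration required for complete inhibition of growth.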

`CC(C)c1ccc2c(c1)CCC1C2CCCC1(C)NCc1ccccc1` (stereo not given): the GI50 in assay [1] is 2.71 µM; in assay [2] it was 8.77 µM; in [3], 8.98 µM; in [4], 1.96 µM; in assay [5], 3.22 µM; in assay [6] it was 14.3 µM. Moreover, the GI50 in [7] is 5.48 µM; in assay [8], 1.82 µM; in assay [9], 13.5 µM; in assay [10], 5.84 µM. For the same compound, the TGI in assay [1] was found to be 7.19 µM; in [2], 21.3 µM; in assay [3], 26.1 µM; in assay [4], 4.39 µM; in assay [5] it was 15.3 µM; in [6], 27.6 µM. The TGI in assay [7] amounted to 19.7 µM; in [8], 3.35 µM; in assay [9] it was 28.9 µM; in [10] it was 19.9 µM.
With `C=C(C)c1nc(Oc2ccccc2)nc(Oc2ccccc2)n1`, the TGI in assay [1] was found to be 14 µM; in [2], 24.5 µM; in assay [3], 16.2 µM; in assay [4] it was 18.1 µM; in assay [5] it was 4.44 µM; in assay [6], 30.3 µM. Besides, the TGI was determined as 21.5 µM in [7], 27.4 µM in assay [8], 24.4 µM in [9] and 29.7 µM in [10].
`CCCCCCCCCCCCOC1C(C(COC2OC(C(O)CO)C3OC(C)(C)OC23)OC(=O)Nc2ccccc2)OC2OC(C)(C)OC21` (stereo not given): the GI50 in assay [1] was 4.72 µM; in assay [2] it was 5.2 µM; in assay [3], 4.47 µM; in assay [4], 10.5 µM; in [5], 12 µM; in assay [6], 15.6 µM. Moreover, the GI50 in assay [7] was 7.39 µM; in assay [8], 8.55 µM; in assay [9], 8.24 µM; in [10], 6.04 µM. In addition, the TGI in assay [1] turned out to be 9.91 µM; in assay [2], 16.9 µM; in assay [3] it was 16.6 µM; in assay [4], 22.5 µM; in assay [5], 25.9 µM; in assay [6] it was 30 µM. Also, the TGI came out at 19.6 µM in assay [7], 25.6 µM in [8], 26.2 µM in assay [9] and 18.4 µM in [10].
As for `O=C(O)CSc1cc(NS(=O)(=O)c2ccc(Br)cc2)c2ccccc2c1O`, the GI50 in [1] was 20.3 µM; in assay [2], 24 µM; in [3] it was 8.18 µM; in assay [4], 7.81 µM; in [5], 14.6 µM; in [6], 18.7 µM. The GI50 in assay [7] is 7.25 µM; in assay [8], 14.7 µM; in [9], 3.73 µM; in [10] it was 3.11 µM. Also, the total growth inhibition concentration (TGI) in assay [1] worked out at 34.7 µM; in assay [2], 42.4 µM; in [3], 23.4 µM; in [4], 23.4 µM; in assay [5] it was 29.4 µM; in assay [6], 33.2 µM. In addition, the TGI is 38 µM in assay [7], 27.9 µM in assay [8], 11 µM in assay [9] and 13.8 µM in [10].
For the compound `O=C1NC(=O)C2C3C=CC(C12)C1C2C(=O)NC(=O)C2C31` (stereo not given), the GI50 was 695 µM in [1]; 291 µM in assay [2]; greater than 896 µM in assay [3]; 636 µM in assay [4]; 568 µM in assay [5]; greater than 767 µM in assay [6]. The GI50 in assay [7] is 727 µM; in [8], 389 µM; in assay [9] it was 880 µM; in assay [10], greater than 1000 µM. The TGI in assay [1] was greater than 1000 µM; in assay [2] it was 249 µM and > 856 µM; in assay [3], greater than 1000 µM; in assay [4], 227 µM and > 1000 µM; in assay [5] it was 250 µM and > 1000 µM; in assay [6] it was 108 µM and > 1000 µM. In addition, the TGI in assay [7] is 250 µM and > 1000 µM; in assay [8], 224 µM and > 756 µM; in assay [9], 206 µM and > 1000 µM; in assay [10], greater than 1000 µM.
On to `COc1cc2c(cc1OCCN1CCN(CCN3C(=O)c4cccc5cccc(c45)C3=O)CC1)N=C[C@@H]1CCCN1C2=O`, for which the GI50 in assay [1] is 19.9 µM; in assay [2] it was 20.4 µM; in [3], 15.8 µM; in [4] it was 18.2 µM; in [5] it was 13.6 µM; in assay [6], 27.8 µM. Moreover, the GI50 in assay [7] is 13 µM; in assay [8] it was 16 µM; in [9] it was 19.9 µM; in assay [10], 11.9 µM. Also, the TGI in [1] turned out to be 37.1 µM; in assay [2] it was 37.5 µM; in assay [3], 33 µM; in assay [4], 35 µM; in [5], 30.2 µM; in assay [6], 46.5 µM. Besides, the TGI in assay [7] stood at 25.6 µM; in [8], 29.5 µM; in assay [9] it was 44.3 µM; in [10], 28.2 µM.
For `COc1ccc(-c2c(Nc3ccccn3)nc3c(C4=CCCCC4)c(-c4ccccc4)[nH]n3c2=O)cc1`, the GI50 in assay [1] is 4.82 µM; in [2] it was 2.99 µM; in assay [3] it was 2.64 µM; in [4], 2.2 µM; in [5], 2.48 µM; in assay [6], 3.44 µM. Also, the GI50 in [7] is 4.17 µM; in assay [8], 2.67 µM; in assay [9] it was 3.47 µM; in assay [10], 2.57 µM. The TGI in [1] was 19.1 µM; in assay [2] it was 21.6 µM; in [3], 42.4 µM; in [4], 16.2 µM; in [5] it was 15.1 µM; in assay [6], 17.5 µM. Further, the TGI was 24.1 µM in [7], greater than 100 µM in assay [8], greater than 100 µM in assay [9] and greater than 100 µM in assay [10].
In the case of `O=S(=O)(O)C(c1ccccc1)C(O)c1ccccc1` (stereo not given), the TGI in assay [1], in [2], in [3], in [4], in assay [5] and in assay [6] was greater than 100 µM throughout. In addition, the TGI in assay [7], in assay [8], in [9] and in assay [10] was greater than 100 µM each time.

As a reminder, the GI50 is the concentration that inhibits growth by half. What is called TGI is the concentration giving total growth inhibition. A lower TGI goes with greater sensitivity of the cells.
